Measured values as given in patent EP1272854B1, “METHOD FOR DETECTING A HORMONE DISRUPTING ACTIVITY OF ENVIRONMENTAL POLLUTANTS” (Meulenberg, Petronella Mariette Maria, priority 2000, dated 2001).

Columns and labels:
[1] = tested on: SHBG (Sex Hormone Binding Globulin) from serum of pregnant volunteers; assay: SHBG assay: competitive displacement of tritiated oestradiol from antibody-captured SHBG on microtiter plate; design: species or system human; conditions: for displacement of oestradiol / affinity to SHBG (in words): discussion of the SHBG assay results; for Activity (score for the displacement of tritiated oestradiol): displacement of 3H-oestradiol from SHBG, related to testosterone standard curve
Excerpt: Sub figure 1a: HPAA = Hypothalamus-Pituitary-Adrenal-Axis; CRH = Corticotrophin Releasing Hormone; ACTH = Adrenocorticotrophic Hormone; Adrenal = adrenal gland. Sub figure 1b: HPTeA = Hypothalamus-Pituitary-Testis-Axis; LHRH = Luteinizing Hormone Releasing Hormone; LH = Luteinizing Hormone. […] The values are the averages of 11 measurements. […] Plotted out is the bound fraction as a percentage of the total quantity of added ^3H-E2 against the concentration of the test compound.
The SHBG assay was developed for detecting a possible oestrogenic activity of xenobiotic substances. As main component use was made of SHBG from serum of pregnant volunteers in the third trimester of pregnancy. Additionally use was made of commercially available polyclonal anti-SHBG antibody (DAKO) to isolate SHBG from serum on a microtiter plate. […] As standard testosterone (Sigma-Aldrich B.V., Zwijndrecht, the Netherlands) was used in a concentration series.
All compounds to be analyzed are related to the testosterone standard curve. For the analysis of an oestrogenic effect various compounds were tested in the SHBG assay, including endogenous steroids, pharmaceutical substances, pesticides and industrial waste products (alkyl phenols). […]

[2] = tested on: SHBG (post partum serum); conditions: competition with 3H-5-alpha-DHT; cited from earlier work
[3] = tested on: SHBG; conditions: cited from earlier work

| Molecule | displacement of oestradiol / affinity to SHBG (in words) [1] | Activity (score for the displacement of tritiated oestradiol) [1] | binding to SHBG [2] | further results |
| --- | --- | --- | --- | --- |
| C#CC1(O)CC[C@H]2[C@@H]3CCC4=CC(=O)CC[C@@H]4[C@H]3CC[C@@]21CC (mixture of isomers) [Norgestrel, reference compound] | high affinity | + + (strong displacement) |  |  |
| O=C(O)COc1ccc(Cl)cc1Cl [2.4-D] |  | + (moderate displacement) |  |  |
| C[C@H]1C[C@@H]2[C@H]([C@@H](O)C[C@@]3(C)[C@H]2CC[C@]3(O)C(=O)CO)[C@@]2(C)C=CC(=O)C=C12 [6-alpha-methylprednisolone, reference compound] |  | + (moderate displacement) |  |  |
| CNC(=O)O/N=C/C(C)(C)SC [Aldicarb] | ambiguous result | +/- |  |  |
| C[C@]12CC[C@@H](O)C[C@@H]1CC[C@@H]1[C@@H]2CC[C@]2(C)C(=O)CC[C@@H]12 [Andosterone, reference compound] |  | + (moderate displacement) |  |  |
| CCNc1nc(Cl)nc(NC(C)C)n1 [Atrazine] | no activity at all | - (no displacement) | not found |  |
| CC(C)(c1ccc(O)cc1)c1ccc(O)cc1 [Bisphenol-A] | remarkably strong effect | + + (strong displacement) |  |  |
| CC/C(=C(/CC)c1ccc(O)cc1)c1ccc(O)cc1 [DES, reference compound] | high affinity | + + (strong displacement) |  |  |
| C[C@]12CC[C@H](O)CC1=CC[C@@H]1[C@@H]2CC[C@]2(C)C(=O)CC[C@@H]12 [Dehydro-iso-andosterone, reference compound] |  | + (moderate displacement) |  |  |
| CN(C)S(=O)(=O)N(SC(F)(Cl)Cl)c1ccccc1 [Dichlofluanide] |  | + (moderate displacement) |  |  |
| O=C(O)CNCP(=O)(O)O [Glyphosate] | ambiguous result | +/- |  |  |
| CCCCC(O)(Cn1cncn1)c1ccc(Cl)cc1Cl (centres unmarked) [Hexaconazole] | ambiguous result | +/- |  |  |
| CCOC(=O)CC(SP(=S)(OC)OC)C(=O)OCC (centres unmarked) [Malathion] |  | + (moderate displacement) |  |  |
| C[C@]12CC[C@@H]3c4ccc(O)cc4CC[C@H]3[C@@H]1CC[C@@H]2O [Oestradiol] |  |  |  | affinity for SHBG ([3]; association constant, see Dunn et al. 1981): 7e-10 M⁻¹ |
| CC1(C)C(C=C(Cl)Cl)C1C(=O)OCc1cccc(Oc2ccccc2)c1 (centres unmarked) [Permethrin] | clear displacement | + + (strong displacement) |  |  |
| CCNc1nc(Cl)nc(NCC)n1 [Simazine] | ambiguous result | + /- |  |  |
| CC(C)(C)C(O)(CCc1ccc(Cl)cc1)Cn1cncn1 (centres unmarked) [Tebuconazole] | ambiguous result | +/- |  |  |
| C[C@]12CC[C@H]3[C@@H](CCC4=CC(=O)CC[C@@]43C)[C@@H]1CC[C@@H]2O [Testosterone] |  | + + (strong displacement) |  | Kd ([3]; see Dunn et al. 1981, read-out: affinity for SHBG (converted)): 62.5 nM; affinity to SHBG relative to oestradiol ([3]; testosterone versus oestradiol): approximately 3 times |
| C=CC1(C)OC(=O)N(c2cc(Cl)cc(Cl)c2)C1=O (centres unmarked) [Vinclozolin] |  | + (moderate displacement) |  |  |
| ClC1=C(Cl)[C@]2(Cl)[C@@H]3[C@@H]4C[C@@H]([C@H]5O[C@@H]45)[C@@H]3[C@@]1(Cl)C2(Cl)Cl [dieldrin] |  |  | not found |  |
| COc1ccc(C(c2ccc(OC)cc2)C(Cl)(Cl)Cl)cc1 [methoxychlor] |  |  | not found |  |
| Clc1ccc(C(c2ccccc2Cl)C(Cl)(Cl)Cl)cc1 (centres unmarked) [o,p'-DDT] |  |  | showed binding |  |
| ClC(Cl)=C(c1ccc(Cl)cc1)c1ccc(Cl)cc1 [p,p'-DDE] |  |  | not found |  |
| Clc1ccc(C(c2ccc(Cl)cc2)C(Cl)(Cl)Cl)cc1 [p,p'-DDT] |  |  | not found |  |
| Oc1c(Cl)c(Cl)c(Cl)c(Cl)c1Cl [pentachlorophenol] |  |  | showed binding |  |
| Nonylphenol | remarkably strong effect | + + (strong displacement) | showed binding |  |
